Results reported in patent US20030104975A1, “Cofactor-based screening method for nuclear receptor modulators and related modulators” (priority 2001, published 2003).

Experiments:
[1] = target: T1, PPARγ DE / p300Nt-GST (Homo sapiens, UniProt P37231); assay: GST pull-down assay, PPARγ DE with p300Nt-GST; format: binding; conditions: anti-histidine blot, rosiglitazone 10^-4 M, FMOC-L-Leu 10^-3 M, compared to DMSO
T1 construct: made in house; host or cells: E. coli BL21 (DE3) for PPARgamma, pET15b; E. coli for the GST fusion, pGex4-T1
T1 sequence (Q09472 2-516 partner limits assumed, one chain of several): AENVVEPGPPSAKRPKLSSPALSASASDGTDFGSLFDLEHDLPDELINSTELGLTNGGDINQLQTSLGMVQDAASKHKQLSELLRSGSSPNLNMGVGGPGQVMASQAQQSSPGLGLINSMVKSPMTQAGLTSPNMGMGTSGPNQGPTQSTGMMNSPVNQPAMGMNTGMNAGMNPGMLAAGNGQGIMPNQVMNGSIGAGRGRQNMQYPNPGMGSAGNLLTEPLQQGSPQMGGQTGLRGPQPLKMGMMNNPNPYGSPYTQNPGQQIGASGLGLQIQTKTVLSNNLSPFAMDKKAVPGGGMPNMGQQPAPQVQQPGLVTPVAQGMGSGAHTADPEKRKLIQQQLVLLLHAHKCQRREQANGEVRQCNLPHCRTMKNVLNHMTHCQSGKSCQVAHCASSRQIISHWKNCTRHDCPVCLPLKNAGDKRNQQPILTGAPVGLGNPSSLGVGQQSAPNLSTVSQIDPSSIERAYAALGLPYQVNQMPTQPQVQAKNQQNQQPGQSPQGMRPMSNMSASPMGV
Text: (§1) The beads were then washed and the samples separated on SDS-PAGE. Blots were developed with anti-histidine antibodies.
(§2) Production of proteins. The p300Nt-GST, SRC-1-GST and TIF2-GST fusion proteins were generated by cloning the N-terminal part of the cDNA coding for the p300 protein (amino acids 2 to 516), the region comprised between amino acids 568 and 780 of SRC-1 (SEQ ID NO: 03), and the domain between amino acids 618 and 826 of TIF2 (SEQ ID NO: 01), respectively, downstream of the glutathione-S-transferase (GST) protein in the pGex4-T1 vector (Pharmacia, Orsay, France). The fusion proteins were then expressed in E. coli and purified on a glutathione affinity matrix (Pharmacia). 6×-histidine-tagged human PPAR-gamma LBD (residues 203-477 of SEQ ID NO: 06) was overproduced in E. coli BL21 (DE3) using the pET15b as an expression plasmid (Novagen, Madison, Wis.) and purified by metal ion affinity chromatography on a Co^2+-loaded HiTrap Chelating column (Pharmacia Biotech, Peapack, N.J.) followed by gel filtration chromatography on a HiLoad Supcrdex 100 column (Pharmacia). The protein concentration was determined by the Bradford method (1976, Anal Biochem 72, 248-254).
(§3) Pull-down experiments. […] The beads were then washed 4 times with pull-down buffer and boiled in 4×-sample buffer. The samples were separated by 12% acrylamide SDS-PAGE and transferred to nitrocellulose membranes.

[2] = target: T2, PPARγ DE/SRC-1-GST complexes (Homo sapiens, UniProt P37231); conditions: GST pull-down, anti-histidine blot; rosiglitazone 10^-4 M, FMOC-L-Leu 10^-3 M; compared to DMSO
T2 sequence (P37231 203-477 isoform P37231-2): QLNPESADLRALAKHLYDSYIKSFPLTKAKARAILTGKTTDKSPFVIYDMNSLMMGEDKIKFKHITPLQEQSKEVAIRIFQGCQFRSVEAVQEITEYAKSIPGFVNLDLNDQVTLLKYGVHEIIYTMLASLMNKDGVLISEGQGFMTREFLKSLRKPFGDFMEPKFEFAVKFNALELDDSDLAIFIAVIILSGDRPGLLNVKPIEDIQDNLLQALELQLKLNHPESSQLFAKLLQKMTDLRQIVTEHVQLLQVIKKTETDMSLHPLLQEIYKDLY
Text: as §1, §2, §3

[3] = target: T3, PPARγ DE / TIF2-GST (Homo sapiens, UniProt P37231); assay: GST pull-down assay, PPARγ DE with TIF2-GST; format: binding; conditions: anti-histidine blot, rosiglitazone 10^-4 M, FMOC-L-Leu 10^-3 M, compared to DMSO
T3 construct: made in house; host or cells: E. coli BL21 (DE3) for PPARgamma, pET15b; E. coli for the GST fusion, pGex4-T1
T3 sequence (P37231 203-477 isoform P37231-2): T2 sequence (P37231 203-477 isoform P37231-2)
Text: as §1, §2, §3

[4] = target: T4, BDGal4-hPPARγ DE / TIF2 (Homo sapiens, UniProt P37231); assay: Mammalian two-hybrid assay in RK13 cells, Gal4-hPPARγ DE with TIF2; format: cell-based; conditions: 24 h, FMOC-L-Leu 10^-5M, rosiglitazone 10^-7M
T4 construct: expressed in transfected cells; host or cells: RK13 cells (ATCC)
T4 sequence (P37231 238-503 limits assumed): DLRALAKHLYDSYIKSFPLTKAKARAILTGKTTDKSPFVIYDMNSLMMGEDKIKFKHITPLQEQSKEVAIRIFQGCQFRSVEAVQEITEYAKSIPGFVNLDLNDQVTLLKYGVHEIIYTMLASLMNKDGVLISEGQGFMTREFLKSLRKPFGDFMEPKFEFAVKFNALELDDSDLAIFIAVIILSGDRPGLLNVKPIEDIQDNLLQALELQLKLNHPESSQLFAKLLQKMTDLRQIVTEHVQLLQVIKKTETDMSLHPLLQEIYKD
Experimental: (§4) FIG. 2: Interactions between PPAR-gamma and cofactors in cultured mammalian cells. Mammalian two-hybrid interaction between PPAR-gamma and the various co-activators in RK13 cells co-transfected with an expression vector for BDGal4-hPPARγ DE, pGL3-(Gal4)5TKLuc reporter construct, pCMV-βGal, as a control of transfection efficiency, and different expression vectors for different cofactors. Cells were grown during 24 h in the presence or absence of the indicated compound. Luciferase activity has been normalized. […] Each point was performed in triplicate. Bars not sharing similar superscripts are statistically different from each other (P<0.05, Fisher's Post-hoc analysis of 2×2 ANOVA with ligands and constructs as factors).
(§5) RK-13 cells were obtained from ATCC (Rockville, Md.). Cells were maintained in Dulbecco's modified Eagle's minimal essential medium (DMEM) supplemented with 10% fetal calf serum (FCS), L-glutamine, and antibiotics. Transfection studies with luciferase (luc.) reporter constructs were carried out as described previously (Oberfield et al., 1999, Proc Natl. Acad Sci USA 96, 6102-6106). The pGL3-(Gal4)5TKLuc reporter constructs are described elsewhere (Gelman et al., 1999, J. Biol. Chem. 274, 7681-7688). […]

[5] = target: T5, BDGal4-hPPARγ DE / SRC-1 (Homo sapiens, UniProt P37231); assay: Mammalian two-hybrid assay in RK13 cells, Gal4-hPPARγ DE with SRC-1; format: cell-based; conditions: 24 h, FMOC-L-Leu 10^-5M
T5 construct: expressed in transfected cells; host or cells: RK13 cells (ATCC)
T5 sequence (Q15788 whole entry partner, one chain of several, the tested form may be a part): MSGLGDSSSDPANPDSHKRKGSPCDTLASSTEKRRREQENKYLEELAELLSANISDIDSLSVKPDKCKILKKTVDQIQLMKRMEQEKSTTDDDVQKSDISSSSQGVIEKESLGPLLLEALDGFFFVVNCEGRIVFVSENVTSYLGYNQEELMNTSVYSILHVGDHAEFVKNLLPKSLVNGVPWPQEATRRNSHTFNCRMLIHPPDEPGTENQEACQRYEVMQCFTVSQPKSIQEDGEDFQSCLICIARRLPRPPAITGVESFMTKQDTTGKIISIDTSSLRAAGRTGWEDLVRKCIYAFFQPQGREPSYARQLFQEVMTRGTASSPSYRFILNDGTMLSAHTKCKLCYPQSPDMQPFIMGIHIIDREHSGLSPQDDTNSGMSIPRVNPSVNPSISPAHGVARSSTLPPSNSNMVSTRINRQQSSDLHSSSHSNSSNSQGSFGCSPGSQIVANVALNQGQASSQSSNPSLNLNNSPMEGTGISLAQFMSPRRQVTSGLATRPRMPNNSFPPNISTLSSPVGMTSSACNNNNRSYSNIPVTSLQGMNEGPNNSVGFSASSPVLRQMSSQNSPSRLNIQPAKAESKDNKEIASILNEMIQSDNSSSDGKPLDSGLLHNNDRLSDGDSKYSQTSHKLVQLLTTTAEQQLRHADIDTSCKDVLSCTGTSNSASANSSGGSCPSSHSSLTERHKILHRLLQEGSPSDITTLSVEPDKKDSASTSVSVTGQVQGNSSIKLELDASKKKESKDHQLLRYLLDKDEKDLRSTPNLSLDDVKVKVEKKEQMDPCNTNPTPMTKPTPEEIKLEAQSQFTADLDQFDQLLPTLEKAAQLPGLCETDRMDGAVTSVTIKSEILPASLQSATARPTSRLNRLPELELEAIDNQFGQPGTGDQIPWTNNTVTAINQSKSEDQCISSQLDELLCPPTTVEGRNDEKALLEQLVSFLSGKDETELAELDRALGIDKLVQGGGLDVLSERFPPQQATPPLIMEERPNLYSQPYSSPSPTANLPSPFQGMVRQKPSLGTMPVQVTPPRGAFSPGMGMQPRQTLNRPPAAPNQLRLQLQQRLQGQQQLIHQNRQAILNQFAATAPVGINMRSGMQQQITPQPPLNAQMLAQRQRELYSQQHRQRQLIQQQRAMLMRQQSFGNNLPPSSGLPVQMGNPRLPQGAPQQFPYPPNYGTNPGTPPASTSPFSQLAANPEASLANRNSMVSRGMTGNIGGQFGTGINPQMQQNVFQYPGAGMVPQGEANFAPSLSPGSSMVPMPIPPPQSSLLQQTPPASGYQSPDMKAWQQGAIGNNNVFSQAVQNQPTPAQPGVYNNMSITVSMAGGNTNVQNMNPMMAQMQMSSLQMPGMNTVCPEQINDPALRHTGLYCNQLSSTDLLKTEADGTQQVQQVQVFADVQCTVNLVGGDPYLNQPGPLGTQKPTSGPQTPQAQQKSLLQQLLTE
Experimental: as §4, §5

[6] = target: T6, BDGal4-hPPARγ DE / p300 (Homo sapiens, UniProt P37231); assay: Mammalian two-hybrid assay in RK13 cells, Gal4-hPPARγ DE with p300; format: cell-based; conditions: 24 h, FMOC-L-Leu 10^-5M
T6 construct: expressed in transfected cells; host or cells: RK13 cells (ATCC)
T6 sequence (P37231 238-503 limits assumed): T4 sequence (P37231 238-503 limits assumed)
Experimental: as §4, §5

[7] = test system: 3T3-L1 cells; assay: 3T3-L1 adipocyte differentiation assay; format: cell-based, murine; conditions: FMOC-L-Leu 10^-5 M
Experimental: A: Expression of adipocyte markers during differentiation of 3T3-L1 cells treated with different PPAR-gamma agonists. Confluent 3T3-L1 cells were incubated with 2 μM insulin, 1 μM dexamethasone, and 0.25 mM isobuthyl methyl xanthine for two days. […] RNA was isolated from 3T3-L1 cells after different times of differentiation induction. Blots were hybridized with DNA probes that specifically bind to 36B4 (to control for RNA loading), lipoprotein lipase (LPL), or aP2.
Cells were stained with Oil Red O after 6 days of treatment.
3T3-L1 cells (ATCC, Rockville, Md.) were grown to confluence in medium A (Dulbecco's modified Eagle's Medium with 10% fetal calf serum, 100 units/ml penicillin, and 100 μg/ml streptomycin). Confluent cell were incubated in medium A containing 2 μM insulin, 1 μM dexamethasone, and 0.25 mM isobuthyl methyl xanthine for two days. Then, the cells were incubated in medium A in presence or absence of PPARγ agonist for 4 days, changing the medium every 2 days. Adipogenesis was evaluated by analysis of the expression of adipocyte-specific markers and by staining of lipids with Oil Red O (Chawla & Lazar, 1994, Proc. Natl. Acad. Sci. USA 91, 1786-1790).
RNA was isolated from 3T3-L1 cells by the acid guanidinium thiocyanate/phenol/chloroform method (Chomczynski & Sacchi, 1987, Anal. Biochem. 162, 156-159). Northern blot analysis of total cellular RNA was performed as described (Auwerx et al., 1989, Mol. Cell. Biol. 9, 2298-2302). Lipoprotein lipase (LPL), aP2 and 36B4 were used as probes (Lefebvre et al., 1997, Arterioscler.Thromb.Vasc.Biol. 17, 1756-1764; Laborda, 1991, Nucl. Acids Res. 19, 3998; Graves et al., 1992, Mol. Cell. Biol 12, 1202-1208).

[8] = Northern blot, extent close to rosiglitazone 10^-7 M

interaction between the PPARγ DE and p300Nt-GST [1]: increased the interaction | formation of PPARγ DE/SRC-1-GST complexes [2]: induced the formation | interaction between TIF2 and the PPARγ DE [3]: not with FMOC-L-Leu
SMILES: CC(C)C[C@H](NC(=O)OCC1c2ccccc2-c2ccccc21)C(=O)O [FMOC-L-Leu, FMOC-L-leucine]
transactivation (luciferase) in the presence of TIF2 [4]: no significant increase in transactivation | transactivation (luciferase) in the presence of SRC-1 [5]: much more pronounced and significant induction | transactivation (luciferase) in the presence of p300 [6]: no significant increase in transactivation | neutral lipid accumulation (Oil Red O staining) ([7]; 6 day incubation, rosiglitazone 10^-7 M): capable of inducing neutral lipid accumulation | LPL mRNA levels [7, 8]: significantly stimulated | aP2 mRNA levels [7, 8]: significantly stimulated
